The results in this text go back to PubChem BioAssay (NCI).

“And” between values parts separate entries of the source, which are not always exact repeats. Equal values may be shown once.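 Results reflect a 48-hour exposure of cells in 96-well plates to compound at five concentrations. Here, GI50 denotes the concentration required for 50% inhibition of growth. The concentration for full growth arrest is given as TGI.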

Test systems include BT-549 breast; UACC-62 melanoma; HL-60(TB) leukemia; SNB-19 CNS; 786-0 renal; RPMI-8226 leukemia; CCRF-CEM leukemia; MALME-3M melanoma; TK-10 renal; HOP-92 NSCLC.
Common to all, as to assay: growth of human tumour cells (NCI), 48 h

Consider `CCOC(=O)C1=C(C)N2C(=NC3=C(CCC/C3=C\c3ccc(Cl)cc3)C2c2ccc(Cl)cc2)S1` (stereo not given), for which the GI50 in the assay with BT-549 breast was 1.53 µM; in the assay on UACC-62 melanoma, 3.25 µM; in the assay with HL-60(TB) leukemia, 3.09 µM; in the assay with SNB-19 CNS, 3.35 µM; with 786-0 renal, 2 µM; in the assay on RPMI-8226 leukemia it was 1.22 µM. In addition, the values for the GI50 in the assay on CCRF-CEM leukemia, with MALME-3M melanoma and in the assay on TK-10 renal were 2.59 µM, 11.3 µM and 5.23 µM, respectively. For the same compound, the TGI in the assay with BT-549 breast is 3.52 µM; with UACC-62 melanoma, 16.8 µM; in the assay with HL-60(TB) leukemia it was 9.24 µM; with SNB-19 CNS, over 100 µM; in the assay on 786-0 renal, 4.74 µM; in the assay on RPMI-8226 leukemia, 4.04 µM. The TGI in the assay with CCRF-CEM leukemia is 7.87 µM; with MALME-3M melanoma, 35.5 µM; with TK-10 renal, 65.9 µM.
Regarding `O=C(NN1C(=O)CSC1c1ccc(F)cc1)C(O)c1ccccc1` (stereo not given), the GI50 was over 100 µM in the assay with BT-549 breast; 80.2 µM in the assay on UACC-62 melanoma; 91.5 µM in the assay with HL-60(TB) leukemia; over 100 µM in the assay on SNB-19 CNS; over 100 µM with 786-0 renal; 44.4 µM in the assay on RPMI-8226 leukemia. Further, the GI50 in the assay on CCRF-CEM leukemia, in the assay on HOP-92 NSCLC and with TK-10 renal was over 100 µM throughout. Besides, the TGI in the assay with BT-549 breast, with UACC-62 melanoma, in the assay on HL-60(TB) leukemia, with SNB-19 CNS, with 786-0 renal and in the assay on RPMI-8226 leukemia was over 100 µM in each case. The TGI in the assay on CCRF-CEM leukemia, with HOP-92 NSCLC and in the assay with TK-10 renal was over 100 µM in each case.
Regarding `Nc1n[nH]c2ccc([C@@H]3Nc4cc5[nH]ncc5cc4[C@H]4C5CCC(C5)[C@@H]34)cc12` (stereo not given in full), the GI50 with BT-549 breast was 0.725 µM; in the assay on UACC-62 melanoma, 0.272 µM; in the assay with HL-60(TB) leukemia, 0.298 µM; in the assay on SNB-19 CNS, 0.436 µM; with 786-0 renal it was 0.709 µM; with RPMI-8226 leukemia it was 0.354 µM. Besides, the GI50 with CCRF-CEM leukemia is 0.344 µM; in the assay with HOP-92 NSCLC, 4.59 µM; with TK-10 renal it was 17.2 µM. Also, the TGI is over 46 µM with BT-549 breast; 17.4 µM in the assay with UACC-62 melanoma; 2.24 µM with HL-60(TB) leukemia; over 100 µM with SNB-19 CNS; over 66.7 µM in the assay on 786-0 renal; 12.6 µM in the assay with RPMI-8226 leukemia. The TGI in the assay with CCRF-CEM leukemia was over 40.4 µM; with HOP-92 NSCLC, over 46.2 µM; in the assay on TK-10 renal, over 95.9 µM.
For `COc1cccc2c1[C@H]1CO[C@H]3C4C[C@H](C(=O)O)C([C@@H](C2)N13)N4C` (stereo not given in full), the TGI with BT-549 breast is 0.339 µM; in the assay on HL-60(TB) leukemia, 4.03 µM and 1.85 µM; in the assay on SNB-19 CNS it was over 100 µM; with 786-0 renal, 4.67 µM; in the assay with MALME-3M melanoma it was 4.8 µM and 1.6 µM; in the assay on HOP-92 NSCLC, 4.55 µM and 3.22 µM. Also, the TGI with TK-10 renal came to 5.71 µM. Also, the GI50 in the assay on UACC-62 melanoma was 0.0475 µM; in the assay on HL-60(TB) leukemia, 0.368 µM; with SNB-19 CNS, 3.81 µM; with CCRF-CEM leukemia it was 2.42 µM and 1.6 µM; in the assay with MALME-3M melanoma, 0.696 µM; with HOP-92 NSCLC it was 0.684 µM.
In the case of `O=C(Nc1ccccc1Cl)c1cccc(NC2=C(Cl)C(=O)N(Cc3ccccc3)C2=O)c1`, the GI50 with BT-549 breast is 22.5 µM; in the assay with UACC-62 melanoma, 7.36 µM; in the assay with HL-60(TB) leukemia it was 1.4 µM; in the assay on SNB-19 CNS, 60.5 µM; in the assay with 786-0 renal it was 10.2 µM; in the assay with RPMI-8226 leukemia, 3.1 µM. Moreover, in the assay on HOP-92 NSCLC, the GI50 was 15 µM. Also, the TGI in the assay with BT-549 breast is over 100 µM; with UACC-62 melanoma, 51 µM; in the assay on HL-60(TB) leukemia, 20.8 µM; in the assay with SNB-19 CNS, over 100 µM; with 786-0 renal, 60.5 µM; in the assay with RPMI-8226 leukemia it was 20.6 µM. Besides, the TGI in the assay on HOP-92 NSCLC is over 100 µM.
Consider `Cc1cc(NC(=O)c2cnc(N3CCN(CCOCCOCCOCCOCCC(=O)N[C@H](C(=O)N4C[C@H](O)C[C@H]4C(=O)N[C@@H](C)c4ccc(-c5scnc5C)cc4)C(C)(C)C)CC3)cn2)c2ncccc2c1`, for which the GI50 was 1.83 µM in the assay with BT-549 breast; 1.71 µM in the assay with UACC-62 melanoma; 2.3 µM with HL-60(TB) leukemia; 3.59 µM in the assay with SNB-19 CNS; 4.61 µM in the assay with 786-0 renal; 3.37 µM in the assay on CCRF-CEM leukemia. For the same compound, the GI50 was 1.76 µM in the assay with MALME-3M melanoma, 2.3 µM in the assay with HOP-92 NSCLC and 10.7 µM in the assay on TK-10 renal. The TGI with BT-549 breast was 3.69 µM; with UACC-62 melanoma it was 3.36 µM; in the assay with HL-60(TB) leukemia, 5.71 µM; with SNB-19 CNS, 14.7 µM; in the assay on 786-0 renal, over 100 µM; in the assay on CCRF-CEM leukemia it was over 100 µM. The figures for the TGI with MALME-3M melanoma, in the assay with HOP-92 NSCLC and in the assay with TK-10 renal were 3.68 µM, 9.37 µM and 53.4 µM, respectively.
For the compound `CN1CCN(c2cc3nc4ccccc4n(-c4ccc(Cl)cc4)c-3cc2=N)CC1`, the GI50 with BT-549 breast is 41.6 µM; in the assay with UACC-62 melanoma it was 22.9 µM; in the assay with SNB-19 CNS, over 100 µM; with 786-0 renal it was 31.4 µM; with RPMI-8226 leukemia, 12.1 µM; with MALME-3M melanoma it was 17.2 µM. The GI50 with HOP-92 NSCLC was 28.7 µM; with TK-10 renal, 36.1 µM. Also, the TGI in the assay on BT-549 breast is over 100 µM; in the assay with UACC-62 melanoma, 54.8 µM; in the assay with HL-60(TB) leukemia, 4.35 µM; in the assay on SNB-19 CNS, over 100 µM; with 786-0 renal, over 100 µM; in the assay on RPMI-8226 leukemia, 35.1 µM. In addition, the TGI in the assay on MALME-3M melanoma was 33.1 µM; in the assay with HOP-92 NSCLC it was 94.8 µM; in the assay with TK-10 renal, over 100 µM.
As to `Clc1ccccc1NN(Cc1ccncc1)c1ccccc1Cl`, the TGI with BT-549 breast was found to be 33.7 µM; in the assay with UACC-62 melanoma, 30.7 µM; in the assay on HL-60(TB) leukemia, 37 µM; in the assay with SNB-19 CNS, 37 µM; with 786-0 renal it was 26.6 µM; in the assay on RPMI-8226 leukemia it was 42.2 µM. The TGI in the assay with MALME-3M melanoma amounted to 35.9 µM; with HOP-92 NSCLC, 18.2 µM.
`CCSc1nc(N)c(C#N)c(-c2ccco2)c1C#N`: the GI50 was 32.3 µM in the assay with BT-549 breast; 32.6 µM in the assay with UACC-62 melanoma; 39.8 µM in the assay on HL-60(TB) leukemia; 51.2 µM with SNB-19 CNS; 39.6 µM in the assay on 786-0 renal; 12.2 µM in the assay with RPMI-8226 leukemia. Moreover, the GI50 with HOP-92 NSCLC is 5.85 µM; in the assay on TK-10 renal it was 21.3 µM. In addition, the TGI with BT-549 breast is over 100 µM; in the assay on UACC-62 melanoma, over 100 µM; in the assay on HL-60(TB) leukemia, over 100 µM; in the assay on SNB-19 CNS, over 100 µM; in the assay with 786-0 renal it was over 100 µM; in the assay on RPMI-8226 leukemia it was 42.4 µM. The TGI with HOP-92 NSCLC worked out at 45.5 µM; with TK-10 renal, 78.1 µM.
